The text below walks through data of PMC9358475 (The Journal of Biological Chemistry, 2022).

For assay [1], the system named is ERK1/2. The assay can be described thus: ERK-KTR live-cell ERK activity reporter in SH-SY5Y, […] h. The assay is classed as cell-based.
In assay [2] the test system is ERK1/2. The assay can be described thus: ERK-KTR live-cell ERK activity reporter in HCT-116, […] h. The assay is classed as cell-based.

For orientation: IC50 means the concentration that gives 50% inhibition. Low readings indicate greater potency, high ones weaker potency. `O=C(Nc1ccc2[nH]nc(-c3ccncc3)c2c1)[C@@H]1CCN(CC(=O)N2CCN(c3ccc(-c4ncccn4)cc3)CC2)C1` [SCH, SCH772984] returned an IC50 in assay [1] of 75 nM.

In assay [2], `CC(C)Nc1cc(-c2c[nH]c(C(=O)N[C@H](CO)c3cccc(Cl)c3)c2)c(Cl)cn1` [Ulix, ulixertinib] yielded an IC50 of 32 nM.
